Assay: xn = mol fraction of the nth substance listed

COCCn1cc[n+](C)c1.N#C[S-] + O=C1CCCO1
101 kPa
Conditions | electrical conductivity [S/m] | viscosity [mPa·s]
288.15 K, x1 = 0.7036 | 0.526 | 34.8
288.15 K, x1 = 1 | 0.223 | 86
293.15 K, x1 = 0.8038 | 0.505 | 39.2
298.15 K, x1 = 0.3001 | 1.63 | 4.18
298.15 K, x1 = 1 | 0.41 | 53
303.15 K, x1 = 0.3001 | 1.8 | 3.68
308.15 K, x1 = 0.6015 | 1.36 | 9.6
308.15 K, x1 = 0.9012 | 0.791 | 27.2
313.15 K, x1 = 0.1027 | 1.99 | 1.82
313.15 K, x1 = 0.5006 | 1.79 | 5.6
313.15 K, x1 = 0.7036 | 1.33 | 11.8
318.15 K, x1 = 0.3001 | 2.44 | 2.59
318.15 K, x1 = 0.4001 | 2.25 | 3.46
323.15 K, x1 = 0.1999 | 2.68 | 1.85
323.15 K, x1 = 0.4001 | 2.48 | 3.1
323.15 K, x1 = 0.5006 | 2.25 | 4.26
323.15 K, x1 = 0.7036 | 1.75 | 8.8
328.15 K, x1 = 0.9012 | 1.52 | 13.9
333.15 K, x1 = 0.1027 | – | 1.3
338.15 K, x1 = 0.6015 | 2.74 | 4.26
338.15 K, x1 = 0.7036 | 2.46 | 6
343.15 K, x1 = 0.5006 | 3.3 | 2.71
343.15 K, x1 = 0.7036 | 2.7 | 5.4

CCCC[n+]1ccn(C)c1.[Br-] + O=C1O[C@H]([C@@H](O)CO)C(O)=C1O + O
viscosity [mPa·s], 100 kPa
Conditions | 293.15 K | 298.15 K | 303.15 K | 308.15 K | 313.15 K | 318.15 K
x2 = 0, x1 = 0.0009002 | 1.033 | 0.918 | 0.823 | 0.753 | 0.676 | 0.618
x2 = 0, x1 = 0.001799 | 1.057 | 0.938 | 0.84 | 0.758 | 0.689 | 0.631
x2 = 0, x1 = 0.002696 | 1.069 | 1 | 0.905 | 0.795 | 0.749 | 0.68
x2 = 0.0003657, x1 = 0.0008999 | 1.04 | 0.925 | 0.831 | 0.761 | 0.684 | 0.626
x2 = 0.0003693, x1 = 0.001798 | 1.064 | 0.945 | 0.847 | 0.765 | 0.696 | 0.638
x2 = 0.000373, x1 = 0.002695 | 1.073 | 1.005 | 0.912 | 0.802 | 0.756 | 0.687
x2 = 0.0007293, x1 = 0.0008995 | 1.048 | 0.933 | 0.839 | 0.769 | 0.691 | 0.633
x2 = 0.0007366, x1 = 0.001797 | 1.071 | 0.952 | 0.854 | 0.772 | 0.703 | 0.645
x2 = 0.0007401, x1 = 0.002694 | 1.08 | 1.013 | 0.919 | 0.808 | 0.763 | 0.695
x2 = 0.001093, x1 = 0.0008992 | 1.055 | 0.94 | 0.845 | 0.775 | 0.697 | 0.639
x2 = 0.0011, x1 = 0.001797 | 1.081 | 0.961 | 0.862 | 0.78 | 0.71 | 0.651
x2 = 0.001111, x1 = 0.002693 | 1.088 | 1.02 | 0.927 | 0.816 | 0.77 | 0.701
x2 = 0.001456, x1 = 0.0008989 | 1.063 | 0.947 | 0.851 | 0.781 | 0.703 | 0.644
x2 = 0.001467, x1 = 0.001796 | 1.09 | 0.969 | 0.869 | 0.786 | 0.716 | 0.657
x2 = 0.001485, x1 = 0.002692 | 1.097 | 1.029 | 0.935 | 0.823 | 0.777 | 0.708
x2 = 0.001819, x1 = 0.0008986 | 1.071 | 0.954 | 0.859 | 0.788 | 0.71 | 0.65
x2 = 0.001833, x1 = 0.001795 | 1.097 | 0.976 | 0.876 | 0.793 | 0.723 | 0.664
x2 = 0.001851, x1 = 0.002691 | 1.106 | 1.038 | 0.941 | 0.83 | 0.785 | 0.715
x2 = 0.002183, x1 = 0.0008982 | 1.079 | 0.961 | 0.865 | 0.795 | 0.717 | 0.657
x2 = 0.002201, x1 = 0.001795 | 1.104 | 0.982 | 0.882 | 0.798 | 0.728 | 0.669
x2 = 0.002221, x1 = 0.00269 | 1.114 | 1.045 | 0.948 | 0.837 | 0.792 | 0.722

CCCC[N+](CCCC)(CCCC)CCCC.[Cl-] + O=C(O)[C@@H]1CCCN1
100 kPa
Conditions | electrical conductivity, 313.15 K [S/m] | electrical conductivity, 323.15 K [S/m] | electrical conductivity, 333.15 K [S/m] | electrical conductivity, 343.15 K [S/m] | electrical conductivity, 353.15 K [S/m] | viscosity, 313.15 K [mPa·s] | viscosity, 323.15 K [mPa·s] | viscosity, 333.15 K [mPa·s] | viscosity, 343.15 K [mPa·s] | viscosity, 353.15 K [mPa·s]
x1 = 0.875 | 0.0343 | 0.0411 | 0.065 | 0.0965 | 0.127 | 389 | 172 | 97.5 | 54.2 | 32.1
x1 = 0.8889 | 0.0137 | 0.0249 | 0.0423 | 0.0735 | 0.108 | 901 | 306 | 171 | 85 | 53.8
x1 = 0.9 | 0.0446 | 0.0612 | 0.0869 | 0.11 | 0.142 | 1051 | 534 | 233 | 131 | 77.3

CCCC[n+]1ccn(C)c1.[Br-] + O=C(O)c1cccnc1 + O
viscosity [mPa·s], 100 kPa
Conditions | 293.15 K | 298.15 K | 303.15 K | 308.15 K | 313.15 K | 318.15 K
x2 = 0, x1 = 0.0009002 | 1.033 | 0.918 | 0.823 | 0.753 | 0.676 | 0.619
x2 = 0, x1 = 0.001799 | 1.057 | 0.938 | 0.84 | 0.758 | 0.689 | 0.631
x2 = 0, x1 = 0.002696 | 1.069 | 1 | 0.905 | 0.795 | 0.749 | 0.68

CC[n+]1ccn(C)c1.[Cl-] + O=C[C@H](O)[C@@H](O)[C@H](O)[C@H](O)CO
373 K, 100 kPa
Conditions | viscosity [mPa·s]
x2 = 0 | 36
x2 = 0.0419 | 66

CC[n+]1ccn(C)c1.[Cl-] + O=C[C@H](O)[C@@H](O)[C@H](O)[C@H](O)CO + CC#N
373 K, 100 kPa
Conditions | viscosity [mPa·s]
x2 = 0, x1 = 0.359 | 3
x2 = 0.002991, x1 = 0.3578 | 3
x2 = 0.01533, x1 = 0.3535 | 4
x2 = 0.0316, x1 = 0.3476 | 5
x2 = 0.04909, x1 = 0.3413 | 6

CC[P+](CC)(CC)CCOC.O=S(=O)([N-]S(=O)(=O)C(F)(F)F)C(F)(F)F + O=S(=O)([N-]S(=O)(=O)C(F)(F)F)C(F)(F)F.[Li+]
101.33 kPa
Conditions | electrical conductivity, 298.2 K [S/m] | electrical conductivity, 312.2 K [S/m] | electrical conductivity, 361.3 K [S/m] | viscosity, 298.2 K [mPa·s] | viscosity, 355.3 K [mPa·s]
x2 = 0.25 | 1 | – | – | 170 | 17
x2 = 0.39 | – | 0.8 | 1.5 | – | –

CCCC[N+](CCCC)(CCCC)CCCC.[Cl-] + OCC(O)CO
100 kPa, x1 = 0.333
Conditions | electrical conductivity [S/m] | viscosity [mPa·s]
293.15 K | 0.0303 | 870
303.15 K | 0.0527 | 500
313.15 K | 0.0885 | 298
323.15 K | 0.144 | 184
333.15 K | 0.228 | 117

CC[n+]1ccn(C)c1.[Cl-] + OCC(O)CO
Conditions | viscosity [mPa·s]
303.15 K, 100 kPa, x1 = 0.333 | 126.9
313.15 K, 101 kPa, x1 = 0.667 | 135.5

[Cl-].c1ccc(C[P+](c2ccccc2)(c2ccccc2)c2ccccc2)cc1 + OCC(O)CO
101 kPa, x2 = 0.9412
Conditions | electrical conductivity [S/m] | viscosity [mPa·s]
298.1 K | 0.006977 | –
307.07 K | – | 654
322.36 K | – | 238
322.96 K | 0.03314 | –
332.98 K | 0.04535 | –
338.06 K | 0.05407 | –
343.13 K | 0.0593 | –
348.08 K | 0.075 | –

From the CheMixHub ionic liquid set
